This is an account of results in patent publication US8841271B2, “Oligonucleotide complex compositions and methods of use as gene alteration tools” (The General Hospital Corporation, priority 2004, dated 2014).

Where “and” joins values, the source holds several entries; their conditions need not be identical. Identical values can stand only once. Entries after “also recorded” stand apart in the source; their conditions may differ. In the oligonucleotide strings, read from the 5' end, every base follows the letter of its sugar. An asterisk marks phosphorothioate; unmarked linkages are phosphodiester. Other units and linkages are bracketed, terminal groups are in braces. A string of capitals states the bases alone. m = 2'-O-methyl; r = 2'-OH (RNA); {P} = phosphate Bounds are passed on as bounds.

Data set [1] has as its system Δ508CFTR expressing cells. In words: Single channel currents in excised inside-out patches (PKA and ATP activation). It is filed as cell-based, mouse. Particulars: treated Δ508 cells. As to the method:
(§1) Mouse mammary carcinoma cells (c127i) transfected with human epithelial CFTR wild type (WT1) or Δ508 CFTR cells [Cannello et al., (1994), J. Biol. Chem. 269, 11224-11232; Dechecchi et al., (1993) J. Biol. Chem. 268, 11321-11325] were used for these studies. The transfected c127i cells are high level producers of Δ508 CFTR mRNA. Cells were grown and maintained in Dulbecco's medium (DMEM), supplemented with 10% fetal bovine serum and 1% L-glutamine, as previously reported [Verkman, (1990) Am. J. Physiol. 259, C375-C388].
Whole-cell and excised inside-out patches were obtained to assess cAMP-PKA dependent anion currents in treated Δ508 cells. Currents and command voltages were obtained and driven. respectively, with a Dagan 3900 amplifier using a 1 gigaohm headstage. The excised patch-clamp configuration was carried out as previously described [Reisin et al., (1994) J. Biol. Chem. 269, 20584-20591]. Single channel data were obtained between ±100 mV in symmetrical Cl^−. Data were further analyzed as previously described [Reisin et al., (1994) J. Biol. Chem. 269, 20584-20591]. The pipette and bathing solution contained, in mmol/L, either: NaCl 140, MgCl2 1.0, KCl 5, and N-2-hydroxyethylpiperazine N′-2-ethanesulfonic acid (HEPES) 10, at pH 7.4, or MgCl2 70, HEPES 10, pH 7.4. The bathing solution also contained 1.0 mmol/L CaCl2. […]

For another data set, the system named is Δ508 CFTR mRNA. As to the kind of experiment: RT-PCR, subcloning and sequencing of CFTR mRNA. Format: cell-based, human. Particulars: mRNA from CF4/CF6 treated Δ508 cells (10 μM), subcloned RT-PCR products. As to the method:
Total RNA isolated by Trizol® reagent according to the manufacturer's protocol (Invitrogen, CA) from either WT1 or Δ508 cells treated with or without CF6/CF4 annealed duplex oligonucleotides (final concentration of duplex in reaction mixture 10 μM) was used to perform the RT-PCR assay [Kleppe et al., (1971) J. Mol. Biol. 56, 341-361] in two steps by using a ThermoScript RT-PCR system (GIBCO, BRL). Several sets of primers were used (see CF Table 1). In the first step, total RNA (˜2 μg) was incubated for […] at 55° C. with amplification refractory mutation system (ARMS) [Ferric et al., (1992) Am. J. Hum. Genet. 51, 251-262] reverse mutant (M1) and normal (N1) primers (0.5 μg each) separately for the first-strand synthesis. In a second step, after heating at 94° C. for 5 mM, 35 cycles of PCR were carried out on the samples. PCR cycles were performed first by denaturation at 94° C. for 2 mM, annealing at 62° C. for 1 min, and extension at 72° C. for 2 min, followed by a final extension for 10 mM at 72° C. Two ARMS reverse primers (N1 and M1) [Ferric et al., (1992) Am. J. Hum. Genet. 51, 251-262], and a forward (F1) primer were used (Table 1). Similarly RT-PCR was performed with ARMS PS reverse primer (SCFR) and PS forward primer (SNF1, Table 1). RT-PCR products were separated in 3% agarose gel and subjected to automated DNA sequence analysis. […]

Another data set concerns DNA genome of Δ508 cells. In words: RT-PCR analysis of DNA from subcloned treated Δ508 cells. It is filed as cell-based. The settings on record: subcloned Δ508 cells originally treated with CF4/CF6. As to the method:
(§2) Without being limited by any particular mechanism, the hypothesis was tested as to whether base insertion in the treated Δ508 cells has occurred at the RNA level. It was possible that the repair mechanism was carried out instead of/or in addition to, the DNA level, by way of reverse transcription extending back to the genome. This was tested by RT-PCR analysis of DNA from subcloned Δ508 cells originally treated with CF4/CF6. No evidence was obtained that the restored phenotype was carried back to the inheritable DNA genome level was obtained. Western blot analysis was conducted with antibodies targeted to epitopes upstream and downstream of the Δ508 deletion, respectively.

Another data set relates to Δ508 cells. In words: SPQ fluorescence assay of cAMP-stimulated Cl- transport. It is filed as cell-based, mouse. The settings on record: CF4/CF6 treated Δ508 cells compared with WT1 cells; control Δ508 cells no change. The procedure:
as §1
Cyclic-AMP-stimulated CY transport was also followed by fluorescence changes of cells loaded with the CY sensitive dye 6-methoxy-N-(3-sulfopropyl)quinolinium (SPQ) [Verkman, (1990) Am. J. Physiol. 259, C375-C388]. Briefly, cells were grown to partial confluence on glass coverslips. […] SPQ fluorescence was determined under an oil immersion X20 objective in a Nikon E-800 fluorescence microscope (Tokyo, Japan), with an UV filter (96101C UV-2E/C). […] Pictures were analyzed digitally with the NIH Image 1.62b7 software. SPQ cytoplasmic fluorescence values were normalized between intra-nuclear (considered as zero quenching, i.e. low Cl^−), and extracellular background. Data were expressed as percent fluorescence with respect to time zero, the time when cells were placed in an isotonic saline solution. […]

The next data set concerns CFTR protein. In words: Western blot with antibodies to epitopes upstream and downstream of the Δ508 deletion. It is filed as cell-based, human. Particulars: both antibodies same level of protein, no truncated or degraded peptides. As to the method:
as §2
In general terms: In western blotting, separated proteins are transferred to a membrane and probed.

Data set [2] has as its system Δ508CFTR expressing cells. In words: Whole-cell patch clamp, cAMP-activated whole cell currents. Format: cell-based, mouse. The procedure: as §1
(§3) Whole-cell and excised inside-out patches were obtained to assess cAMP-PKA dependent anion currents in treated Δ508 cells. Currents and command voltages were obtained and driven. respectively, with a Dagan 3900 amplifier using a 1 gigaohm headstage. The excised patch-clamp configuration was carried out as previously described [Reisin et al., (1994) J. Biol. Chem. 269, 20584-20591]. Single channel data were obtained between ±100 mV in symmetrical Cl^−. Data were further analyzed as previously described [Reisin et al., (1994) J. Biol. Chem. 269, 20584-20591]. The pipette and bathing solution contained, in mmol/L, either: NaCl 140, MgCl2 1.0, KCl 5, and N-2-hydroxyethylpiperazine N′-2-ethanesulfonic acid (HEPES) 10, at pH 7.4, or MgCl2 70, HEPES 10, pH 7.4. The bathing solution also contained 1.0 mmol/L CaCl2. Whenever indicated, the patch-pipette was filled up to at least one third of its height with either MgATP or TrisATP (100 mmol/L, pH 7.4 adjusted with N-methyl-glucamine) as previously reported [Reisin et al., (1994) J. Biol. Chem. 269, 20584-20591]. Experiments were conducted at room temperature. The cAMP stimulatory mixture contained 8-Br-cAMP, isobutyl-methyl-xanthine (IBMX) and forskolin. Final concentrations were 500 μmol/L, […], and 10 μmol/L, respectively. The catalytic subunit of PKA was used at a final concentration of 20 μg/ml. The Cl^− channel blocker, diphenylamine-2-carboxylate (DPC) was kept in a 100-fold stock solution (20 mmol/L) in 50% water/ethanol. DPC was used at a final concentration of 500 μM.
To restore the normal (wild type) phenotype in cells expressing Δ508CFTR, modified oligonucleotides were constructed and their effect on ion transport was assessed in Δ508 cells treated with these constructs. In a first step, a modified oligodeoxyribonucleotide was synthesized, containing phosphorothioate (PS) and PS plus 2′-O-methyl modifications for the central and flanking segments, respectively. This oligonucleotide was designed to hybridize in Watson-Crick base complementarity to the region of Δ508 mRNA where the PS section would be directly opposite the Δ508 mRNA position, flanked 3′- and 5′- by adjacent nucleotides complementary to the Δ508 mRNA. Accordingly, the PS segment would activate endogenous RNase H, and cleave those bases opposite the PS complementary oligonucleotide (10 μM). The insertion of bases then occurs in a second step.
For the second or insertion step, two complementary single strand oligonucleotides, CF4 and CF6 (Table 1, Scheme 1A) were constructed. The annealed CF4/CF6 duplex (10 μM final concentration) was added to the Δ508 CFTR cells after 2 hours incubation, then washout, in the deletion step. Next, following overnight or up to 72 hour incubation in the second (insertion) step, patch clamp examination was conducted on the treated cells.
(Patch clamp records ionic current or voltage across a cell membrane.)

In another data set the test system is CFTR. In words: DPC block of cAMP-activated whole cell currents in treated Δ508 cells. Format: cell-based, human. Particulars: DPC 500 μM. The procedure: as §3, with “The Cl^− channel blocker, diphenylamine-2-carboxylate (DPC) was kept in a 100-fold stock solution (20 mmol/L) in 50% water/ethanol. DPC was used at a final concentration of 500 μM.” left out
Setting [3] is: two step treated Δ508 cells, n=24.

With “CF4/CF6: 2′-O-methyl RNA/unmodified RNA oligonucleotide duplex of CF4 (SEQ ID NO: 1) and CF6 (SEQ ID NO: 2) (chain 1 mAmUmCmAmUmAmGmGmAmAmAmCmAmCmCmAmAmAmGmAmUmGmAmUmAmUmUmUmUmCmUmUmU; chain 2 {P}-rCrArUrCrUrUrUrGrGrUrG-{P}; listed as Homo sapiens)”, the “single channel conductance of PKA-activated Cl- channels” value in data set [1] (excised inside-out patches) was 10-12 pS and 12 pS. For the same molecule, in data set [1] (control Δ508 cells 0/24), the “treated cells displaying PKA and ATP activated Cl- channels” value was 10/12. Further, in the data set on Δ508 CFTR mRNA, the “UGU insertion in Δ508 mRNA (percentage of subclones showing TGT insertion)” value is 20-30%. In addition, the “restored phenotype carried back to the inheritable DNA genome level” value with DNA genome of Δ508 cells is “No evidence”. In addition, the “change in SPQ fluorescence in response to cAMP stimulation” value with Δ508 cells is given as “comparably similar change in SPQ fluorescence”. Also, the “CFTR protein made in the presence of the oligonucleotides” value in the data set on CFTR protein was “full-length protein was made; also recorded: does not act as an inhibitor of protein synthesis”. Also, in data set [2] (CF4/CF6 duplex added to Δ508 cells in tissue culture, patch clamping and SPQ quenching), the “time to restoration of CFTR channel function” value was 8 to 18 h. Besides, the “whole-cell currents in the absence of cAMP stimulation” value in data set [2] (CF4/CF6 treated cells, data not shown) is “sporadically showed large, DPC inhibitable whole-cell currents”. The “cAMP-activated whole cell conductance” value in data set [2] (CF4/CF6 treated Δ508 cells, FIG. 1, untreated Δ508 cells lacked it) is listed as “robust cAMP response”. In addition, in data set [2] (after cell replication and washing out of the oligonucleotide after a few days incubation), the “persistence of restored CFTR function” value is listed as “restoration of CFTR function was lost”. Further, the “phenotypic reversion by patch clamp” value in data set [2] (one step: CF4/CF6 duplex added without first oligonucleotide treatment step) is reported as “phenotypic reversion was likewise found”. For the same molecule, in data set [2] (two step treated Δ508 cells (PS oligonucleotide 10 μM 2 h, washout, then CF4/CF6 10 μM overnight to 72 h), n=24, p<0.01), the “increase of whole cell currents after cAMP stimulation” value was 243%. Further, in data set [2] (setting [3]), the “whole cell conductance after cAMP stimulation” value amounted to 2.98±0.68 nS/Cell and the “whole cell conductance before cAMP stimulation” value amounted to 0.87±0.16 nS/Cell.

For `O=C(O)c1ccccc1Nc1ccccc1` [DPC, diphenylamine-2-carboxylate], in the data set on CFTR (CF4/CF6 treated Δ508 cells, FIG. 1), the “effect on cAMP-activated currents” value is given as “inhibited”. The “inhibition of cAMP-activated currents” value in the data set on CFTR (two step treated Δ508 cells) is recorded as above 84%.
